Experimental data reported in patent publication US10738057B2, “Tertiary alcohols as PI3K-γ inhibitors” (Incyte Corporation, priority 2017, dated 2020).
Where a name gives a salt, the structure may show the parent alone. Read-outs that look alike come from different tables or passages of the source.

Key:
[1] = molecular target: PI3Kγ (p110γ) Recombinant Human Protein (Homo sapiens (Human), UniProt P48736); experiment: PI3K-γ scintillation proximity assay; type: biochemical; settings: 20 μM PIP2, 2 μM ATP, 13 nM PI3Kγ, 120 min, room temperature
Sequence of PI3Kγ (p110γ) Recombinant Human Protein (P48736 whole entry): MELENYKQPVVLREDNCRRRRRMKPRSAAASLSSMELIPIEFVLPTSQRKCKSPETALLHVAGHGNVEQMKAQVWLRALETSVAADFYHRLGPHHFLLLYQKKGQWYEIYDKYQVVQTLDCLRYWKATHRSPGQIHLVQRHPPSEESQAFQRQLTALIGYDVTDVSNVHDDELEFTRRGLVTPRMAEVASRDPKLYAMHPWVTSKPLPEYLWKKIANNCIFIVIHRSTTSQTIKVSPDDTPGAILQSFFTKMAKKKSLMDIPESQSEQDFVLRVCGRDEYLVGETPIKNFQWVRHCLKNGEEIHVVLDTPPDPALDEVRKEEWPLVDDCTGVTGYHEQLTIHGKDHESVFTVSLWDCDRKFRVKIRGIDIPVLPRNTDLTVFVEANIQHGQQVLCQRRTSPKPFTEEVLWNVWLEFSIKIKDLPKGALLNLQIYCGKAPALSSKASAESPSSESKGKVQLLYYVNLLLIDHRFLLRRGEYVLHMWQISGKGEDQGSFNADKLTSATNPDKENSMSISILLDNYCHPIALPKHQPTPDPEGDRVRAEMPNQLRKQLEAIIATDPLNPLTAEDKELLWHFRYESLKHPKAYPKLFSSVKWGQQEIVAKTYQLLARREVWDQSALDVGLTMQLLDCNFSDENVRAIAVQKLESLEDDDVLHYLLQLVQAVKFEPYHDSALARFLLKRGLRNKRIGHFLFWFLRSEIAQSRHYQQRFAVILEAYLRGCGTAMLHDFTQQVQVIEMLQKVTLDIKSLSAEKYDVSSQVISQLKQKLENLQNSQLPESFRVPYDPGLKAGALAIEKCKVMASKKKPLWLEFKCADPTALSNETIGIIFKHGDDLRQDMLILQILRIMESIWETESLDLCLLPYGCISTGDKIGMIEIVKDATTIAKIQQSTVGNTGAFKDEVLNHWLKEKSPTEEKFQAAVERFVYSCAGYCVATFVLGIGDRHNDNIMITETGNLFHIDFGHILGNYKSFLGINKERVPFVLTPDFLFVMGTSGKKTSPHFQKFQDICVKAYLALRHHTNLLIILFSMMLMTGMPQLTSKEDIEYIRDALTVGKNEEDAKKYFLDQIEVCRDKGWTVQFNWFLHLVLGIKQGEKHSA
Description: Example B. PI3K-γ Scintillation Proximity Assay
[γ-^33P]ATP (10 mCi/mL) and Wheat Germ Agglutinin (WGA) YSi SPA Scintillation Beads was purchased from PerkinElmer (Waltham, Mass.). Lipid kinase substrate, D-myo-Phosphatidylinositol 4,5-bisphosphate (PtdIns(4,5)P2)D (+)-sn-1,2-di-O-octanoylglyceryl, 3-O-phospho linked (PIP2), CAS 204858-53-7, was purchased from Echelon Biosciences (Salt Lake City, Utah). PI3Kγ (p110γ) Recombinant Human Protein was purchased from Life technology (Grand Island, N.Y.). ATP, MgCl2, DTT, EDTA, MOPS and CHAPS were purchased from SigmaAldrich (St. Louis, Mo.).
(§1) The kinase reaction was conducted in polystyrene 384-well Greiner Bio-one white plate from Thermo Fisher Scientific in a final volume of 25 μL. Inhibitors were first diluted serially in DMSO and added to the plate wells before the addition of other reaction components. The final concentration of DMSO in the assay was 2%. The PI3Kγ assay was carried out at room temperature in 20 mM MOPS, pH 6.7, 10 mM MgCl2, 5 mM DTT and CHAPS 0.03%. Reactions were initiated by the addition of ATP, the final reaction mixture consisted of 20 μM PIP2, 2 μM ATP, 0.5 μCi [γ-^33P] ATP, 13 nM PI3Kγ. Reactions were incubated for 120 min and terminated by the addition of 40 μL SPA beads suspended in quench buffer: 163 mM potassium phosphate pH 7.8, 20% glycerol, 25 mM EDTA. The final concentration of SPA beads is 1.0 mg/mL. After the plate sealing, plates were shaken overnight at room temperature and centrifuged at 1500 rpm for 10 min, the radioactivity of the product was determined by scintillation counting on Topcount (Perkin-Elmer). IC50 determination was performed by fitting the curve of percent of the solvent control activity versus the log of the inhibitor concentration using the GraphPad Prism 6.0 software.

[2] = system: Phosphorylated Ribosomal Protein S6 (RPS6) in THP-1 cells; experiment: THP-1 RPS6 ELISA assay; type: cell-based, Human
Experimental: Example A. THP-1 RPS6 ELISA Assay
To measure the Phosphorylated Ribosomal Protein S6 (RPS6) in cell lysates, THP-1 cells (Human Acute Monocytic Leukemia) are purchased from ATCC (Manassas, Va.) and maintained in RPMI with 10% FBS (Gibco/Life Technologies, Carlsbad, Calif.). For the assay, THP-1 cells are serum starved overnight in RPMI, then plated in RPMI (2×10^5 cells/well in 90 μL) into 96-well flat-bottom tissue culture treated plates (Corning, Corning, N.Y.), in the presence or absence of a concentration range of test compounds. Covered plates are incubated for 2 hours at 37° C., 5% CO2 then treated with or without 10 nM MCP-1 (MYBioSource, San Diego, Calif.) for 15 minutes at 37° C., 5% CO2. Plates are centrifuged at 1600 RPM and supernatants are removed. Cells are lysed in Lysis Buffer (Cell Signaling, Danvers, Mass.) with Protease Inhibitor (Calbiochem/EMD, Germany), PMSF (Sigma, St Louis Mo.), HALTS (Thermo Fisher, Rockford, Ill.) for 30 min on wet ice. Cell lysates are frozen at −80° C. before testing. The lysates are tested in the Human/Mouse/Rat Phospho-RPS6 ELISA (R&D Systems, Inc. Minn, Minn.). The plate is measured using a microplate reader (SpectraMax M5—Molecular Devices, LLC Sunnyvale, Calif.) set to 450 nm with a wavelength correction of 540. IC50 determination is performed by fitting the curve of inhibitor percent inhibition versus the log of the inhibitor concentration using the GraphPad Prism 5.0 software.

[3] = molecular target: PI3Kδ (p110δ/p85α) Recombinant Human Protein (Homo sapiens (Human), UniProt O00329); experiment: PI3Kδ scintillation proximity assay; type: biochemical; settings: 20 μM PIP2, 2 μM ATP, 3.4 nM PI3Kδ, 120 min, room temperature; read-out: PI3Kδ IC50
Sequence of PI3Kδ (p110δ/p85α) Recombinant Human Protein (O00329 whole entry): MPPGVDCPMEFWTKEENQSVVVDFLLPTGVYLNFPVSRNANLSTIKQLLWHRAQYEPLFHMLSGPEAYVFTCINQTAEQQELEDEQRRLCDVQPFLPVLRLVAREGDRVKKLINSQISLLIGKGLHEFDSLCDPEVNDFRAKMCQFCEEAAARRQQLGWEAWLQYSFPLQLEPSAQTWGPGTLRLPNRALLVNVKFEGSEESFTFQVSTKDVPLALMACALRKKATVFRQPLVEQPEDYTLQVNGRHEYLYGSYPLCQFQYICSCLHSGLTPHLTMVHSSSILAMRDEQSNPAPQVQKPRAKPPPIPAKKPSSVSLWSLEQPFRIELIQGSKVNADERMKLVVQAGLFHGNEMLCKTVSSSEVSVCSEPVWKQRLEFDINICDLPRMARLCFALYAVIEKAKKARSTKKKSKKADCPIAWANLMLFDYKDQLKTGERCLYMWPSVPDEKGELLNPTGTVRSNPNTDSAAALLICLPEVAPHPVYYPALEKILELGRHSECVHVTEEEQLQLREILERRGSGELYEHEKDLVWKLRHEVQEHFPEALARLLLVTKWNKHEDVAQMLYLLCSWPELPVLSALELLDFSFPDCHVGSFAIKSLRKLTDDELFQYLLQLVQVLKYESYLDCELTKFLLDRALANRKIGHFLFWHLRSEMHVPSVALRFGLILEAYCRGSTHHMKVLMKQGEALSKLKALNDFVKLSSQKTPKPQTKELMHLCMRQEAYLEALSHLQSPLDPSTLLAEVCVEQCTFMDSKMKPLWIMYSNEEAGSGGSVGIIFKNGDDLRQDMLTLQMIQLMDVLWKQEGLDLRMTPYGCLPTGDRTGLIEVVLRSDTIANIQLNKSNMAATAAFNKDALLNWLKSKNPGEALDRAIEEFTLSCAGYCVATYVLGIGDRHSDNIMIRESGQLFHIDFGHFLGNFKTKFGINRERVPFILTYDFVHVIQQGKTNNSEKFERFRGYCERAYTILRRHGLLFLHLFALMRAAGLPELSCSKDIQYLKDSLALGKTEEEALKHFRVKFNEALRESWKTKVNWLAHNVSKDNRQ
Sequence of PI3Kδ (p110δ/p85α) Recombinant Human Protein (P27986 whole entry partner): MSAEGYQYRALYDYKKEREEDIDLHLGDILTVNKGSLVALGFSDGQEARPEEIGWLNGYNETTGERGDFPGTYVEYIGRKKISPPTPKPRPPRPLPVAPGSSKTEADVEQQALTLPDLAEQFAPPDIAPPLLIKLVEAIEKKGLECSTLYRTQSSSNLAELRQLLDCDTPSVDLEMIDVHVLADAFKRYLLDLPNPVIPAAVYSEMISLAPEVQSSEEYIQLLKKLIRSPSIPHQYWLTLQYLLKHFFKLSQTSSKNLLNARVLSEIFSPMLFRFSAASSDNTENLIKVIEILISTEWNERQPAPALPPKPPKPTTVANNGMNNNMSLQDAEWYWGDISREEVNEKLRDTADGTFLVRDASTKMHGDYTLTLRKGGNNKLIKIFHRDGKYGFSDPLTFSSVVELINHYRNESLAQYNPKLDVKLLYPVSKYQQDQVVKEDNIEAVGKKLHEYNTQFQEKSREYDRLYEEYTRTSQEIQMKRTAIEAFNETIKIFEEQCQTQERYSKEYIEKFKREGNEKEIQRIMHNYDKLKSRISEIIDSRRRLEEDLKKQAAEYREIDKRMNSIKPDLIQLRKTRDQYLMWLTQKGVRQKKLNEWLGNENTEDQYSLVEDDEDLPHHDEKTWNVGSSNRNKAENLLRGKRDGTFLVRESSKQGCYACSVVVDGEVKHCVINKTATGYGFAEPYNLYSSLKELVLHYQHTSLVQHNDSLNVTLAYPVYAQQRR
Experimental: PI3Kδ Scintillation Proximity Assay
[γ-^33P]ATP (10 mCi/mL) and Wheat Germ Agglutinin (WGA) YSi SPA Scintillation Beads was purchased from PerkinElmer (Waltham, Mass.). […] PI3Kδ (p110δ/p85α) Recombinant Human Protein was purchased from Eurofins (St Charles, Mo.). ATP, MgCl2, DTT, EDTA, MOPS and CHAPS were purchased from SigmaAldrich (St. Louis, Mo.).
as §1, with “PI3Kδ” for “PI3Kγ”, “ATP, 13 nM PI3Kγ. Reactions were incubated for 120 min and terminated by the addition of 40 μL SPA beads suspended in quench buffer: 163 mM potassium phosphate pH 7.8, 20% glycerol, 25 mM EDTA.” left out, “(PerkinElmer).” for “(Perkin-Elmer).”

[4] = Homo sapiens, THP-1, THP-1 cells, serum starved, 2 h compound, 10 nM MCP-1 for 15 min, phospho-RPS6 ELISA, read-out: PI3Kγ_THP1_RPS6_ELISA IC50
[5] = THP-1 cells, serum starved, 2 h compound, 10 nM MCP-1 for 15 min, phospho-RPS6 ELISA, read-out: PI3Kγ_THP1_RPS6_ELISA IC50
[6] = Homo sapiens, THP-1, read-out: PI3Kγ_THP1_RPS6_ELISA IC50 (nM)

SMILES	IC50 [1] [µM]	IC50 [2, 4] [nM]	IC50 [3] [µM]	IC50 [2, 5] [nM]	IC50 [2, 6] [nM]
Cc1ccc(C(O)(C(N)=O)C(F)(F)F)cc1-c1cnc2c(N)nc(C(=O)NC3(C(F)(F)F)CCOCC3)cn12 (stereo not shown) [Example 85, 8-Amino-3-(5-(3-amino-1,1,1-trifluoro-2-hydroxy-3-oxopropan-2-yl)-2-methylphenyl)-N-(4-(trifluoromethyl)tetrahydro-2H-pyran-4-yl)imidazo[1,2-a]pyrazine-6-carboxamide, trifluoroacetate]	< 0.1	100 to 500	0.5 to 2		
Cc1ccc(C(C)(O)C(F)F)cc1-c1cnc2c(N)nc(-c3ccc(C(C)O)nc3)cn12 (single isomer, unassigned) [Example 136, 2-(3-(8-Amino-6-(6-(1-hydroxyethyl)pyridin-3-yl)imidazo[1,2-a]pyrazin-3-yl)-4-methylphenyl)-1,1-difluoropropan-2-ol]	< 0.1	< 100	0.1 to 0.5		
Cc1ccc(C(C)(O)C(F)(F)F)cc1-c1cnc2c(N)nc(-c3cnc(C4CC4)s3)cn12 (stereo not shown) [Example 20, 2-(3-(8-Amino-6-(2-cyclopropylthiazol-5-yl)imidazo[1,2-a]pyrazin-3-yl)-4-methylphenyl)-1,1,1-trifluoropropan-2-ol, TFA]	< 0.1	100 to 500	< 0.1		
Cc1ccc(C(C)(O)C(F)F)cc1-c1cnc2c(N)nc(-c3cn[nH]c3)cn12 (stereo not shown) [Example 40, 2-(3-(8-Amino-6-(1H-pyrazol-4-yl)imidazo[1,2-a]pyrazin-3-yl)-4-methylphenyl)-1,1-difluoropropan-2-ol]	< 0.1	100 to 500	< 0.1		
Cc1ccc(C(C)(O)C(F)(F)F)cc1-c1cnc2c(N)nc(C(F)(F)F)cn12 (single isomer, unassigned) [Example 6, 2-(3-(8-Amino-6-(trifluoromethyl)imidazo[1,2-a]pyrazin-3-yl)-4-methylphenyl)-1,1,1-trifluoropropan-2-ol]	< 0.1		0.1 to 0.5	100 to 500	
Cc1ncc(-c2cn3c(-c4cc(C(C)(O)C(F)F)ccc4C)cnc3c(N)n2)o1 (stereo not shown) [Example 28, 2-(3-(8-Amino-6-(2-methyloxazol-5-yl)imidazo[1,2-a]pyrazin-3-yl)-4-methylphenyl)-1,1-difluoropropan-2-ol]	< 0.1	100 to 500	< 0.1		
[2H]C([2H])([2H])c1ccc(C(C)(O)C(F)(F)F)cc1-c1cnc2c(N)nc(C(=O)NCC(C)(C)O)cn12 (stereo not shown) [Example 81, 8-Amino-N-(2-hydroxy-2-methylpropyl)-3-(2-(methyl-d3)-5-(1,1,1-trifluoro-2-hydroxypropan-2-yl)phenyl)imidazo[1,2-a]pyrazine-6-carboxamide]	< 0.1	100 to 500	< 0.1		
Cc1ccc(C(O)(C(=O)O)C(F)(F)F)cc1-c1cnc2c(N)nc(C(F)(F)F)cn12 (stereo not shown) [Example 120, 2-(3-(8-amino-6-(trifluoromethyl)imidazo[1,2-a]pyrazin-3-yl)-4-methylphenyl)-3,3,3-trifluoro-2-hydroxypropanoic acid]	< 0.1	> 1000	0.1 to 0.5		
Cc1ccc(C(C)(O)C(F)F)cc1-c1cnc2c(N)nc(-c3ccnc(CO)c3)cn12 (single isomer, unassigned) [Example 45, 2-(3-(8-Amino-6-(2-(hydroxymethyl)pyridin-4-yl)imidazo[1,2-a]pyrazin-3-yl)-4-methylphenyl)-1,1-difluoropropan-2-ol]	< 0.1		< 0.1	100 to 500	
Cc1ccc(C(C)(O)C(F)(F)F)cc1-c1cnc2c(N)nc(C#CC3CC3)cn12 (stereo not shown) [Example 162, 2-(3-(8-Amino-6-(cyclopropylethynyl)imidazo[1,2-a]pyrazin-3-yl)-4-methylphenyl)-1,1,1-trifluoropropan-2-ol trifluoroacetate salt]	< 0.1	100 to 500	0.1 to 0.5		
CNCCC(O)(c1ccc(C)c(-c2cnc3c(N)nc(C(F)(F)F)cn23)c1)C(F)(F)F (single isomer, unassigned) [Example 15, 2-(3-(8-Amino-6-(trifluoromethyl)imidazo[1,2-a]pyrazin-3-yl)-4-methylphenyl)-1,1,1-trifluoro-4-(methylamino)butan-2-ol]	< 0.1		0.1 to 0.5	100 to 500	
Cc1ccc(C(C)(O)C(F)F)cc1-c1cnc2c(N)nc(-c3c(C)n[nH]c3C)cn12 (stereo not shown) [Example 39, 2-(3-(8-Amino-6-(3,5-dimethyl-1H-pyrazol-4-yl)imidazo[1,2-a]pyrazin-3-yl)-4-methylphenyl)-1,1-difluoropropan-2-ol]	< 0.1	< 100	< 0.1		
Cc1ccc(C(O)(C(N)=O)C(F)(F)F)cc1-c1cnc2c(N)nc(C(C)(C)O)cn12 (single isomer, unassigned) [Example 255, 2-(3-(8-Amino-6-(2-hydroxypropan-2-yl)imidazo[1,2-a]pyrazin-3-yl)-4-methylphenyl)-3,3,3-trifluoro-2-hydroxypropanamide trifluoroacetate salt]		< 100			
Cc1ccc(C(O)(C(N)=O)C(F)(F)F)cc1-c1cnc2c(N)nc(C(=O)NC34CCC(O)(CC3)C4)cn12 (single isomer, unassigned) [Example 260, 8-Amino-3-(5-(3-amino-1,1,1-trifluoro-2-hydroxy-3-oxopropan-2-yl)-2-methylphenyl)-N-(4-hydroxybicyclo[2.2.1]heptan-1-yl)imidazo[1,2-a]pyrazine-6-carboxamide trifluoroacetate salt]		500 to 1000			
Cc1ccc(C(O)(CO)C(F)(F)F)cc1-c1cnc2c(N)nc(-c3cnco3)cn12 (racemic) [Example 71, 2-(3-(8-Amino-6-(oxazol-5-yl)imidazo[1,2-a]pyrazin-3-yl)-4-methylphenyl)-3,3,3-trifluoropropane-1,2-diol trifluoroacetate salt]					< 100
Cc1ccc(C(O)(CO)C(F)(F)F)cc1-c1cnc2c(N)nc(-c3cnn(C)c3)cn12 (racemic) [Example 69, 2-(3-(8-Amino-6-(1-methyl-1H-pyrazol-4-yl)imidazo[1,2-a]pyrazin-3-yl)-4-methylphenyl)-3,3,3-trifluoropropane-1,2-diol trifluoroacetate salt]					< 100
